The term IC50 denotes the concentration needed to halve the response being measured. Low values mean greater potency, high ones weaker potency. As usually defined, the ΔTm is the change in melting temperature against a reference sample.

We go through 52 compounds from PMC12406199, “NanoDSF Screening for Anti-tubulin Agents Uncovers New Structure–Activity Insights” (Journal of Medicinal Chemistry, 2025).

One test has as its system U87MG. The experiment in a line: cells. Set-up: MTT viability assay on U87MG glioblastoma cells. Conditions: Homo sapiens, U-87 MG, 72 h. The method, then:
Glioblastoma cell culture routines, viability, and proliferation assays were performed as previously described. U87MG cells were maintained in complete MEM media supplemented with 10% FBS and 2 mM L-glutamine (Invitrogen, Paris, France). For cytotoxicity assays, cells were counted and plated in 96-well flat-bottom plates (50,000 cells/mL, 5000 cells per well). After 24 h, the cells were treated with increasing concentrations of the MTAs (0, 1, 5, 10, and 20–40 μM) in a vehicle solution, containing 0.05% DMSO. All concentrations were done in triplicates. The surviving cells were quantified after 72 h by the tetrazolium bromide MTT-assay, according to the manufacturer’s instructions. After cell lysis, the optical density was measured at 600 nm using a Multiskan MS Thermo plate reader (LabSystems, Waltham, MA, USA).

The next test deals with tubulin (Ovis aries, UniProt D0VWY9+D0VWZ0). In words: nanoDSF screen, shift of polymerization temperature at about […]. The format is biochemical.
tubulin, sequence (D0VWY9 entry or part of it): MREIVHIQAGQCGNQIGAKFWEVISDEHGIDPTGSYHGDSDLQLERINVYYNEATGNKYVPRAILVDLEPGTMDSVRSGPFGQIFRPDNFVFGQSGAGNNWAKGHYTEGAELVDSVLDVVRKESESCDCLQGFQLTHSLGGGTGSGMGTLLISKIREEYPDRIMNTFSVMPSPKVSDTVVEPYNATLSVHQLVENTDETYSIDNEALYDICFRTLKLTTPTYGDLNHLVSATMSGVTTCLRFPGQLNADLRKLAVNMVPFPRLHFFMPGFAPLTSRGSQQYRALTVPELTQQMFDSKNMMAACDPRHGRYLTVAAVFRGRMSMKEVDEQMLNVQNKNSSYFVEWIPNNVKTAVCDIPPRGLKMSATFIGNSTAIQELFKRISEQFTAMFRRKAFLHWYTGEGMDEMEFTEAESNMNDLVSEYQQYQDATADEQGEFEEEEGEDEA
tubulin, sequence (D0VWZ0 entry or part of it): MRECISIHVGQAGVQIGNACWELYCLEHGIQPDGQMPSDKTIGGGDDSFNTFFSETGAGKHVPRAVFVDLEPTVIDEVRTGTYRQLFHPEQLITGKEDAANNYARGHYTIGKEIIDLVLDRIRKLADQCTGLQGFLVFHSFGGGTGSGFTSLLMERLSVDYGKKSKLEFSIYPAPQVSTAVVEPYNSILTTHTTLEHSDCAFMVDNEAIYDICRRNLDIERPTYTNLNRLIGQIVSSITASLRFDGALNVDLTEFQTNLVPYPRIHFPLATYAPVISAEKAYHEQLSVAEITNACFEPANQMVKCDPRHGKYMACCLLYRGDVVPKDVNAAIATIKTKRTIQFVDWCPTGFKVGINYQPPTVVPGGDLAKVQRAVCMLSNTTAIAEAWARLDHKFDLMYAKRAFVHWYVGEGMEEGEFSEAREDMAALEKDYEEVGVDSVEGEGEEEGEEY

Counter-ions that a name gives are not always drawn. A value given as a limit tells only on which side of the number the result lay.

On to `C[C@]12CC[C@@H]3c4ccc(O)cc4CC[C@H]3[C@@H]1CC[C@@H]2O` [ED, 17β-estradiol], for which half-maximal inhibition with U87MG (IC50) required 30.7 ± 1.9 µM.

The compound `C/C=C(/C(=C/C)c1ccc(O)cc1)c1ccc(O)cc1` [DE, Dienestrol] displayed an IC50 in the test on U87MG of 23.6 ± 1 µM.

In the test with U87MG, `CN(C)CCCN1c2ccccc2Sc2ccc(Cl)cc21` [CPZ, Chlorpromazine] showed an IC50 of 4.5 ± 0.5 µM.

Turning to `C[C@@H](O[C@H]1OCCN(Cc2n[nH]c(=O)[nH]2)[C@H]1c1ccc(F)cc1)c1cc(C(F)(F)F)cc(C(F)(F)F)c1` [APT, Aprepitant], in the test on U87MG, it took 41.8 ± 31.8 µM to reach half-maximal inhibition (IC50).

For the compound `CN(C)CCOc1ccc(/C(=C(/CCCl)c2ccccc2)c2ccccc2)cc1` [TMF, Toremifene], in the test with U87MG, the IC50 is 13.3 ± 1.9 µM.

`COC(=O)Nc1nc2ccc(Sc3ccccc3)cc2[nH]1` [FBZ, Fenbendazole] displayed an IC50 with U87MG of 0.2 µM.

With `COC(=O)Nc1nc2cc([S+]([O-])c3ccccc3)ccc2[nH]1` (stereo not drawn) [OFZ, Oxfendazole], it took 17 ± 1 µM to reach half-maximal inhibition in the test on U87MG (IC50).

Compound `CCOC(=O)C1=C(C)NC(C)=C(C(=O)OC)C1c1cccc(Cl)c1Cl` (stereo not drawn) [FDP, Felodipine] gave an IC50 in the test with U87MG of 13.7 ± 4 µM.

For the compound `CN(C)CC/C=C1/c2ccccc2Sc2ccc(Cl)cc21` [CPX, Chlorprothixene], the IC50 in the test on U87MG came to 27.6 ± 2.2 µM.

The compound `Oc1ccc(Cl)cc1Cc1cc(Cl)ccc1O` [DCP, Dichlorophen] had an IC50 with U87MG of 7.7 ± 1.2 µM.

On to `COC(=O)Nc1nc2ccc(C(=O)c3cccs3)cc2[nH]1` [NCZ, Nocodazole], for which the ΔTm at 50 µM at tubulin was found to be 6 °C. Also, in the test with U87MG, the IC50 is less than 0.1 µM.

As for `O=C1Nc2ccc(Cl)cc2[C@@](C#CC2CC2)(C(F)(F)F)O1` [EFV, Efavirenz], in the test with U87MG, the IC50 turned out to be 26.7 ± 2.6 µM.

For the compound `CNCCC=C1c2ccccc2C=Cc2ccccc21` [nCBP, Norcyclobenzaprine], the IC50 in the test on U87MG was 15.2 ± 0.8 µM.

In the test with U87MG, `CSc1nc2cc(Cl)c(Oc3cccc(Cl)c3Cl)cc2[nH]1` [TCZ, Triclabendazole] registered a concentration for half-maximal inhibition (IC50) of 15.1 ± 0.9 µM.

`CCN(CC)C(=S)SSC(=S)N(CC)CC` [DFM, Disulfiram] showed an IC50 in the test on U87MG of 12 ± 1.6 µM.

For the compound `c1ccc2c(c1)Nc1ccccc1S2` [PTZ, Phenothiazine], the IC50 in the test with U87MG came to 60.2 ± 9.2 µM.

Take `OCCN1CCN(CCCN2c3ccccc3Sc3ccc(Cl)cc32)CC1` [PPZ, Perphenazine]: half-maximal inhibition in the test on U87MG (IC50) was put at 9.8 ± 0.4 µM.

In turn, `COC1=CC(=O)C[C@@H](C)[C@]12Oc1c(Cl)c(OC)cc(OC)c1C2=O` [GSF, Griseofulvin] came in with a concentration for half-maximal inhibition (IC50) in the test on U87MG of 24.4 ± 3.7 µM.

On to `CCCOc1ccc2[nH]c(NC(=O)OC)nc2c1` [OBZ, Oxibendazol], for which the IC50 in the test with U87MG was found to be 1.8 ± 0.3 µM.

Compound `CC[C@H](c1ccc(O)cc1)[C@@H](CC)c1ccc(O)cc1` [Hexestrol] gave an IC50 in the test with U87MG of 20.2 ± 0.5 µM.

Consider `CCSc1ccc2c(c1)N(CCCN1CCN(C)CC1)c1ccccc1S2` [TEP, Thiethylperazine], for which, in the test on U87MG, inhibition was half-maximal at 8.4 ± 0.2 µM (IC50).

For `O=c1c2ccccc2[se]n1-c1ccccc1` [EBS, Ebselen], in the test on U87MG, half-maximal inhibition (IC50) required 50.9 ± 32.7 µM.

Compound `C#C[C@]1(O)CC[C@H]2[C@@H]3CCc4cc(O)ccc4[C@H]3CC[C@@]21C` [EES, Ethinylestradiol] yielded an IC50 with U87MG of 15.7 ± 0.8 µM.

With `C[C@H]1[C@H](OC(=O)CCC(=O)O)O[C@@H]2O[C@@]3(C)CC[C@H]4[C@H](C)CC[C@@H]1[C@@]24OO3` [ASN, Artesunate], inhibition in the test with U87MG was half-maximal at 24 ± 4.1 µM (IC50).

`CN(C)CCCN1c2ccccc2Sc2ccc(C(F)(F)F)cc21` [TFZ, Triflupromazine]: inhibition in the test with U87MG was half-maximal at 6.5 ± 0.6 µM (IC50).

With `CCCSc1ccc2nc(NC(=O)OC)[nH]c2c1` [ABZ, Albendazole], the ΔTm at 50 µM on tubulin was 6.4 °C. Also, inhibition with U87MG was half-maximal at 0.3 µM (IC50).

`CN1CCN(CCCN2c3ccccc3Sc3ccc(C(F)(F)F)cc32)CC1` [TFP, Trifluoperazine] had an IC50 in the test with U87MG of 17.3 ± 3.2 µM.

In the test with U87MG, `CNCCC=C1c2ccccc2CCc2ccccc21` [NTP, Nortriptyline] showed an IC50 of 20.5 ± 1.5 µM.

In the test on U87MG, `CCOC(=O)C1=C(C)NC(C)=C(C(=O)OC)C1c1cccc([N+](=O)[O-])c1` (stereo not drawn) [NTD, Nitrendipine] registered an IC50 of 36.8 ± 3.3 µM.

With `COC(=O)Nc1nc2cc(C(=O)c3ccc(F)cc3)ccc2[nH]1` [FLU, Flubendazol], the IC50 in the test with U87MG amounted to 0.6 µM.

`Nc1cc(C(Cl)=C(Cl)Cl)c(S(N)(=O)=O)cc1S(N)(=O)=O` [CLS, Clorsulon] displayed an IC50 in the test with U87MG of 66.8 ± 13.3 µM.

In the case of `CN(C)c1ccc2nc3ccc(=[N+](C)C)cc-3sc2c1` [MB, Methylene Blue], in the test with U87MG, inhibition was half-maximal at 64.2 ± 9.9 µM (IC50).

Compound `C[C@]12C=CC(=O)C=C1CC[C@@H]1[C@@H]2CC[C@@]2(C)[C@H]1CC[C@]2(C)O` [MAS, Methandrostenolone] yielded an IC50 with U87MG of 58.7 ± 5.1 µM.

In the test on U87MG, `O=C1NCCN1CCN1CCC(c2cn(-c3ccc(F)cc3)c3ccc(Cl)cc23)CC1` [STD, Sertindole] yielded an IC50 of 6.7 ± 0.2 µM.

Consider `CNCCCC1c2ccccc2C=Cc2ccccc21` [PTP, Protriptyline hydrochloride], for which, in the test on U87MG, the IC50 came to 17.7 ± 1.5 µM.

As for `CCc1oc2ccccc2c1C(=O)c1cc(Br)c(O)c(Br)c1` [BZB, Benzbromarone], half-maximal inhibition with U87MG (IC50) required 62.1 ± 2.8 µM.

In the test on U87MG, `Oc1c(Cl)cc(Cl)c(Cl)c1Cc1c(O)c(Cl)cc(Cl)c1Cl` [HCP, Hexachlorophene] yielded an IC50 of 5.1 ± 0.7 µM.

The compound `CCc1oc2ccccc2c1C(=O)c1ccc(O)cc1` [BZ, Benzarone] came in with an IC50 in the test with U87MG of 7.4 ± 0.7 µM.

In the test on U87MG, `Cc1cc2nc3ccc(N(C)C)cc3[s+]c2cc1N` [TBO, Tolonium (Toluidine Blue O)] came in with an IC50 of 6.3 ± 0.3 µM.

For `Clc1ccc(C(Cn2ccnc2)OCc2c(Cl)cccc2Cl)c(Cl)c1` (stereo not drawn) [ICZ, Isoconazole], 33.1 ± 1.8 µM corresponded to half-maximal inhibition with U87MG (IC50).

For `Oc1cc(Cl)ccc1Oc1ccc(Cl)cc1Cl` [TCL, Triclosan], half-maximal inhibition in the test on U87MG (IC50) was put at 11.6 ± 0.5 µM.

`N#CC(c1ccc(Cl)cc1)c1c(Cl)cc(-n2ncc(=O)[nH]c2=O)cc1Cl` (stereo not drawn) [DCZ, Diclazuril]: inhibition in the test on U87MG was half-maximal at 48.9 ± 6 µM (IC50).

Take `Clc1ccc(C(Cn2ccnc2)OCc2csc3c(Cl)cccc23)c(Cl)c1` (stereo not drawn) [STZ, Sertaconazole nitrate]: it took 10.7 ± 1.3 µM to reach half-maximal inhibition with U87MG (IC50).

The compound `Cc1c(C)c2c(c(C)c1O)CCC(C)(COc1ccc(CC3SC(=O)NC3=O)cc1)O2` (stereo not drawn) [TGZ, Troglitazone] came in with an IC50 with U87MG of 39.5 ± 1 µM.

Take `COC(=O)C1=C(C)NC(C)=C(C(=O)OCC(C)C)C1c1ccccc1[N+](=O)[O-]` (stereo not drawn) [NSD, Nisoldipine]: the concentration for half-maximal inhibition (IC50) in the test with U87MG was determined as 25.3 ± 1.6 µM.

`Clc1ccc(C(c2ccccc2Cl)C(Cl)Cl)cc1` (stereo not drawn) [MTT, Mitotane]: the IC50 with U87MG stood at 23.7 ± 2.7 µM.

Compound `OCCN1CCN(CC/C=C2/c3ccccc3Sc3ccc(C(F)(F)F)cc32)CC1` [FPX, Flupentixol] returned an IC50 in the test with U87MG of 9.8 ± 1.8 µM.

In the test with U87MG, `CC(C)c1cccc(C(C)C)c1O` [PPF, Propofol] showed an IC50 of 26.6 ± 2.5 µM.

In the test with U87MG, `COc1ccc(C(=O)c2ccccc2)c(O)c1` [OXY, Oxybenzone] gave an IC50 of 14.4 ± 7 µM.

Compound `O[C@@H](c1cc(C(F)(F)F)nc2c(C(F)(F)F)cccc12)[C@H]1CCCCN1` (racemic) [MFQ, Mefloquine] registered an IC50 in the test with U87MG of 11.6 ± 1.2 µM.

Turning to `Clc1ccc(C(Cn2ccnc2)OCc2ccsc2Cl)c(Cl)c1` (stereo not drawn) [TOZ, Tioconazole], the midpoint of inhibition in the test on U87MG, the IC50, lay at 18.3 ± 1.4 µM.

`N=C(N)Nc1ccc(C(=O)Oc2ccc3cc(C(=N)N)ccc3c2)cc1` [NFM, Nafamostat]: in the test on U87MG, the IC50 amounted to 45.2 ± 6.1 µM.
